Measured values as given in patent publication US20170340588A1, “MODULATION OF REGULATORY T CELLS VIA G-COUPLED PROTEIN RECEPTOR 43” (President and Fellows of Harvard College, priority 2013, published 2017).

Tests used:
[1] = system: T cell transfer colitis; assay: T cell transfer model of colitis; type: in vivo, mice
Description: At Day 0, Naive CD4+CD25^−CD45RB^hi splenic T cells were FACS-sorted from BALB/c mice and injected i.p. into 6-8 week old BALB/c RAG2^−/− immunodeficient recipients (5×10^5 cells/mouse). At day 10, BALB/c RAG2^−/− immunodeficient recipients received CD4^+ CD25^+ CD45RB^lo splenic Treg cells (75,000/mouse) isolated from BALB/c or C57BL/6 mice Ffar2^+/+ and Ffar2^−/− mice where indicated. Mice were monitored weekly for weight loss and morbidity for 6-9 weeks as per the protocol's experimental endpoint guidelines.
Colons were excised and cleaned with DPBS prior to fixation in 4% PFA and then processed by routine paraffin embedding, sectioning and H&E staining. Colitis scores were determined by J.N.G., who was blinded to the experimental parameters. Each of 4 histologic parameters were scored as absent (0), mild (1), moderate (2), or severe (3): mononuclear cell infiltraton, polymorphonuclear cell infiltration, epithelial hyperplasia, and epithelial injury. The scores for the parameters were summed to generate the cumulative histologic colitis score as previously described.

[2] = system: colonic lamina propria Treg; assay: In vitro T cell stimulation of colonic Treg (RTqPCR, ELISA, proliferation); type: cell-based, mice
Description: (§1) Treg were isolated from the colon, small intestine, mesenteric lymph node or spleen of C57BL/6 Foxp3^YFP-Cre mice and FACS-sorted based on expression of YFP. RNA samples were prepared using the RNeasy Mini Kit (Qiagen) and cDNA was synthesized using the Bio-Rad iScript cDNA Synthesis Kit. Real-time (RT)-qPCR was performed using the KAPA SYBR FAST Universal qPCR Kit (KAPA Biosystems) and a Stratagene MX3005P (Agilent Technologies). The following primer sequences were used:
Colonic lamina propria Treg were isolated from C57BL/6 Foxp3^YFP-Cre mice as described above and FACS-sorted based on expression of YFP. Isolated Treg were cultured in RPMI 1640 medium supplemented with 10% FBS (Gibco), 4 mM L-glutamine, 80 U/ml penicillin, 80 μg/ml streptomycin, 1 mM sodium pyruvate, 10 mM HEPES and 1× nonessential amino acids (all obtained from Cellgro). Treg were stimulated with 1 μg/ml anti-CD3 antibody and with or without 0.1 mM sodium propionate for 24 h at 37° C. The division index is calculated by dividing the total number of cell divisions by the number of cells added at the start of the culture and represents the average number of divisions a cell from the original population has undergone and includes the undivided fraction in the calculation.
Cytokines were measured in culture supernatants using standard cytokines, antibodies and protocols. IL-10 was measured using the BD OptEIA ELISA Kit (BD Biosciences) and TGFβ1 levels were measured using the mouse TGF-beta 1 DuoSet (R&D Systems).

[3] = mouse, in vivo
Description: At the conclusion of the experiment mice were removed from isolators and processed immediately.
Cecal or small intestinal contents were collected immediately after animals were sacrificed and flash frozen in N2(1). Samples were mashed in 500 μl HPLC grade water and centrifuged at >14,000 x g, the resulting supernatant was then passed through a 0.22 μm syringe filter to remove bacterial cells and debris. Samples we then acidified with 1/10 volume of 0.01M H2SO4, heated and passed through a condenser to isolate volatile compounds within a sample. SCFA analyses were performed using an Agilent 1200 series HPLC and a Poroshell 120 SB C18 column (2.7 μm, 3.0×100mm) with guard column (Agilent Technologies). Sulfuric acid (0.01M) was used as the mobile phase. SCFA concentrations were weight corrected.

[4] = system: HDAC; assay: HDAC expression (RTqPCR) and histone acetylation (Western blot) in cTreg; type: cell-based, mice; conditions: 0.1 mM, 24 hours
Description: as §1
Colonic lamina propria Treg were isolated and whole cell lysates generated using RIPA buffer in the presence of protease inhibitors. Protein lysates were resolved using SDS-PAGE and transferred to PVDF membrane using a Bio-Rad wet transfer apparatus. Blots were probed with antibodies directed against acetyl-histone H3 (K9) and histone H3 (All from Cell Signaling Technologies). After incubation with the appropriate HRP-conjugated antibody, ECL was used for developing. Densitometry analysis of Western blots was performed using Image-J software available on the world wide web at rsbweb.nih.gov/ij/.

CCC(=O)O [Propionate, propionic acid]
effect on intestinal inflammation (colitis scores) ([1]; Ffar2+/+ or Ffar2-/- Treg transferred): dependent upon Ffar2 expression in Treg
degrees of colonic crypt injury, inflammation, and hyperplasia ([1]; H&E, compared to control mice): reduced degrees
frequency and number of colonic LP Foxp3+ Treg ([1]; T cell transfer colitis): increase
weight loss ([1]; naïve T cells and Treg, vs water alone (P<0.0001)): less severe
mean colitis score ([1]; naïve T cells and Treg, water alone 5.1±0.6): 2.0±0.6
Foxp3 and IL-10 expression and IL-10 protein levels ([2]; Ffar2+/+ cTreg, 0.1 mM, 24 hours): enhanced
cTreg proliferation ([2]; anti-CD3 and IL-2, 0.1 mM propionate): enhanced proliferation
Foxp3 and IL-10 expression in cTreg ([2]; cTreg from GF mice stimulated 24 hours in vitro, 0.1 mM): significant increase
IL-10 production ([2]; cTreg from GF mice, in vitro 24 hours, 0.1 mM, ELISA): increased
Foxp3 expression, IL-10 expression and IL-10 protein production ([2]; cTreg from SPF mice, 24 hours in vitro, 0.1 mM): increases
SCFA levels, SPF SI [3]: 2.69 ± 0.24 µmol/g
SCFA levels, SPF SI + P [3]: 12.08 ± 3.69 µmol/g
SCFA levels, cecal contents, ASF [3]: 18.83 ± 2.72 µmol/g
SCFA levels, cecal contents, GF [3]: 1.46 ± 0.162 µmol/g
SCFA levels, cecal contents, GF + Mic [3]: 11.78 ± 6.38 µmol/g
SCFA levels, cecal contents, GF + P [3]: 14.93 ± 4.50 µmol/g
SCFA levels, cecal contents, SPF [3]: 21.90 ± 0.122 µmol/g
SCFA levels, cecal contents, SPF + P [3]: 43.33 ± 12.17 µmol/g
SCFA levels, cecal contents, SPF + Vanco [3]: 1.851 ± 1.41 µmol/g
cTreg expression of HDAC6 and HDAC9 ([4]; Ffar2+/+): reduced
cTreg expression of class I HDAC1 and HDAC2 or class IIa HDAC7 ([4]; Ffar2+/+): did not reduce
histone acetylation (H3K9) ([4]; cTreg, required Ffar2): enhanced
